Measurements from patent US7682351B2, “Method for infusing insulin to a subject to improve impaired hepatic glucose processing” (priority 2003, dated 2010).
“Also recorded” adds a separate entry of the source.

Key:
Assay type in all cases: in vivo, human
[1] = tested on: type 1 DM patients with nephropathy; test: 18-month multi-center controlled study of Chronic Intermittent Intravenous Insulin Therapy (CIIIT) on progression of diabetic nephropathy
Procedure: A study was conducted to assess the effects of Chronic Intermittent Intravenous Insulin Therapy (CIIIT) on the progression of diabetic nephropathy in patients with type 1 diabetes mellitus (DM). This 18-month multi-center, prospective, controlled study involved 49 type 1 DM patients with nephropathy who were following the Diabetes Control and Complications Trial (DCCT) intensive therapy (IT) regimen. Of these, 26 patients formed the control group C, which continued on IT, while 23 patients formed the treatment group (T) and underwent, in addition to IT, weekly CIIIT.
For all of the above listed examples, after the initial few days of treatment, the patients underwent treatment once a week, each treatment day consisting of three infusions of insulin accompanied by ingestion of carbohydrates. The infusion device used to infuse the insulin was the BIONICA MD-110 pump. Typically there were ten pulses given over a period of one hour, and a rest period of one hour was taken between infusions of insulin. The form in which the carbohydrates were ingested changed from time to time and included eating foods of high glycemic index including but not limited to bread and cake. The patients' circulating glucose was measured once every thirty minutes by the finger stick method currently used by most diabetic patients. […]

[2] = tested on: diabetic patients with neuropathy; test: Case reports: diabetic neuropathy patients treated with the subject method
Description: (§1) The preferred embodiment of the method for delivering insulin pulses to a patient to improve impaired hepatic glucose processing is as follows. On the morning of the procedure, the patient is preferably seated in a blood drawing chair and a 23 gauge needle or catheter is preferably inserted into a hand or forearm vein to obtain vascular access. However, any system of such access may accomplish the needed result, including indwelling catheters, PICC lines and PORTACATHS. After a short equilibration period, the patient is asked to make a circulating glucose measurement prior to starting the actual infusion of insulin. A steady baseline circulating glucose level is achieved when two identical consecutive measurements taken 5 minutes apart is obtained. It is preferable that patients have circulating glucose levels close to 200 mg/dl prior to using the infusion method. In the case of pregnant diabetic women, however, every attempt is made to keep the maximum circulating glucose level to 150 mg/dl or less.
(§2) After the circulating glucose measurement has been taken and the patient has the proper circulating glucose starting level, the patient is asked to consume a liquid or food containing glucose. The amount of glucose given to s diabetic patient ranges from 60 to 100 grams, but for small framed people the amount could be as low as 40 grams of glucose. However, the amount of initial glucose given to the patient may vary. Liquid or food containing glucose is consumed by the patient to prevent the patient from becoming hypoglycemic. The preferred liquid or food is GLUCOLA, but any similar type of liquid or high glycemic food, including but not limited to cake and bread, containing glucose may be given to the patient. In a non-diabetic patient more glucose may be required than in the diabetic patient, but the other parameters would remain the same, including the need for a pulsed delivery of insulin.
Pulses of insulin are then administered intravenously at planned intervals of time, usually every six minutes. However other intervals may be used from as low as every three minutes up to every 30 minutes. For diabetic patients the amount of insulin in each pulse is 10-200 milliunits of insulin per kilogram of body weight; for non-diabetic patients the amount of insulin in each pulse is slightly lower. […]
(§3) For all of the above listed examples, after the initial few days of treatment, the patients underwent treatment once a week, each treatment day consisting of three infusions of insulin accompanied by ingestion of carbohydrates. […] The patients' circulating glucose was measured once every thirty minutes by the finger stick method currently used by most diabetic patients. […]

[3] = tested on: diabetic patients with heart disease; test: Case reports: diabetic heart disease patients treated with the subject method
Description: as §1
as §2, with “In a non-diabetic patient more glucose may be required than in the diabetic patient, but the other parameters would remain the same, including the need for a pulsed delivery of insulin.” left out
as §3

[4] = tested on: diabetic patients with retinopathy; test: Case reports: diabetic retinopathy patients treated with the subject method; conditions: single patients with retinopathy; listed as subject method
Description: as §1, with “less. […]” for “less.”
as §3

[5] = tested on: type 2 diabetic patient with diabetes related kidney disease; test: Case report: diabetes related kidney disease (proteinuria) treated with the subject method; conditions: 1500 milligrams per 24-hour period before treatment, increasing 500 milligrams/24 hours/year; 5 years of use
Description: as §1, with “less. […]” for “less.”
as §3

[6] = tested on: type 2 diabetic male with autonomic neuropathy; test: Case report: elevated blood pressure with autonomic neuropathy treated with the subject method; conditions: 200/120 before treatment despite intensive insulin therapy; 5 years of use
Description: as §1, with “less. […]” for “less.”
as §3

[7] = tested on: diabetic patients with leg ulcers; test: Case reports: diabetes related leg ulcers treated with the subject method; conditions: ulcers not responding to any available therapy; listed as subject method
Description: as §1, with “less. […]” for “less.”
as §3

[8] = tested on: patients suffering from senile dementia; test: Senile dementia in diabetic patients treated with the method (Hepatic Activation)
Description: as §1
After the circulating glucose measurement has been taken and the patient has the proper circulating glucose starting level, the patient is asked to consume a liquid or food containing glucose. The amount of glucose given to s diabetic patient ranges from 60 to 100 grams, but for small framed people the amount could be as low as 40 grams of glucose. […]

[9] = type 1 person with severe neuropathy, Example 14

insulin
effect on progression of diabetic nephropathy (conclusion) ([1]; CIIIT added to IT in type 1 DM patients with overt nephropathy): markedly reduce the progression of diabetic nephropathy | rate of creatinine clearance (CrCl) decline ([1]; T group (n=23): DCCT intensive therapy (IT) plus weekly CIIIT, 18 months, control group C on IT alone 7.69±1.88 ml/min/yr, P=0.0343): 2.21±1.62 ml/min/yr | neuropathic pain after treatment ([2]; single patients with polyneuropathy / painful peripheral neuropathy, weekly treatment, listed as subject method): pain has been reduced to the point where the person enjoys rigorous exercise; also recorded: no longer takes pain medication and has no twinges of pain in their legs; also recorded: pain had subsided to the point where they no longer used a wheelchair | gastroparesis after treatment [2, 9]: gastroparesis was reversed | numbness in legs after treatment [2, 9]: numbness in their legs has gone away | autonomic neuropathy symptoms after treatment (overall disease state) ([2]; type 1 person, bed-ridden with autonomic neuropathy before treatment, two years of use): reversed all of the diseases to the point where they have taken themself off disability | cardiac clinical outcome after treatment ([3]; single patients with diabetes related heart disease, listed as subject method): no longer required a heart transplant; also recorded: could withstand 4-vessel by-pass surgery; also recorded: condition improved to the point where the doctors performed two instead of one grafts | daily insulin intake after treatment ([3]; type 2 patient with dilated cardiomyopathy, 150 units a day before treatment): 24-26 units/day | ejection fraction after treatment ([3]; type 2 patient with severe dilated cardiomyopathy, 14-19% before treatment, 10 years of treatment): 29-32% | eyesight / retinal outcome after treatment [4]: eyesight improved to the point where night driving was no longer a concern; also recorded: the bleeding stopped, and there was no further deterioration of the retina | proteinuria after treatment [5]: 600-800 milligrams/24 hours | blood pressure after treatment [6]: 120/80 | leg ulcer outcome after treatment [7]: ulcers on their second leg healed; also recorded: ulcers healed and have never returned | dementia symptoms after treatment ([8]; listed as Hepatic Activation): significant improvement in their motor skills, memory, and cognitive function | dementia symptoms after treatment ([8]; listed as present invention): clearly shown improvement in confusion, weakness, disorientation, cognitive function and lack of memory
